Results as given in patent publication US20220105051A1, “COMPOUNDS FOR INCREASING MHC-I EXPRESSION AND MODULATING HISTONE DEACETYLASE ACTIVITY” (Cava Healthcare Inc., priority 2019, published 2022).
Entries after “also recorded” stand apart in the source; their conditions may differ.

Columns and labels:
[1] = test system: TAP, MHC class I, and HDACs 8 and 10; experiment: mRNA expression in A9 cells (RT-PCR); assay type: cell-based, murine; details: 0.064 μmol
From the text: (§1) Methods primarily used: Fluorescence Activated Cell Sorting (FACS), western blot, RealTime-PCR (RT-PCR), Proteome Profiler Mouse Cytokine Array Kit (Panel A).

[2] = test system: A9 cells; experiment: Proteome Profiler Mouse XL cytokine array on A9 cells; assay type: cell-based, murine; details: 0.014 mg/ml (0.064 umol) vs DMSO
Protocol: as §1
Upon addition of 0.014 mg/ml (0.064 umol) of Curcuphenol, there was a change in the cytokine production of A9 cells, relative to that of cells treated with only vehicle DMSO. This treatment was done in 2 mL of DMEM media, at an initial seeding density of 1×10^6 A9 cells, and treatment with Curcuphenol in DMSO vehicle or DMSO vehicle was done 24 hours after seeding A9 cells. A9 cells are murine metastatic epithelial carcinoma cells. Cytokine change was seen using the Proteome Profiler Mouse XL cytokine array (R&D Systems, ARY028).

[3] = test system: A9 metastatic tumour cells; experiment: In vivo tumour trial; set-up: species or system C57BL/6 mice; details: daily i.p. for 12 days; for anti-tumour effect compared among the treatments / tumour volume / tumour growth compared to vehicle control: A9 tumours; for anti-tumour effect compared among the treatments: 5.2 mg/kg; for tumour volume / tumour growth compared to vehicle control / body weight: P02-113 and P03-97-1 5.2 mg/kg, TSA 0.5 mg/kg
Protocol: The metastatic cell line, A9, was grown in the DMEM, as previously described without, the addition of antibiotics (penicillin and streptomycin, P/S). Once cells reached 75-80% confluence, they were trypsinized (0.05%, Gibco) and washed with HBSS (Hanks balanced salt solution). The cells were counted using the Bio-RAD TC20 automated cell counter and suspended to a concentration of […] in HBSS. Thirty-two synergistic female C57BL/6 mice, between the ages 6-8 weeks, were subcutaneously injected in the right flank with 50 μL containing 5×10^4 A9 metastatic tumour cells. Seven days following tumour inoculation i.p. treatment began daily for 12 days. Four treatment groups were studied, with eight animals per group. […] Body weights were measured three times a week and once tumours developed they were measured with calipers and tumour volume was calculated. Twelve days after starting treatment, mice were euthanized and tumours were collected and weighed. The tumours were then processed for flow cytometry analysis. Tumours were cut into small pieces and incubated RPMI (Gibco; with P/S 0.5%, Sodium pyruvate 1%, and L-glutamine 1%) and 3 mg/mL collagenase A (Roche) for one hour at 37° C. with shaking. Dissociated tumour cells were passed through a 100 μm filter and spun down at 15,000×RCF for 3 minutes. The pellet was washed once in FACs buffer (2% FBS in PBS) and spun down. The pellet was next suspended in red blood cell (RBC) lysis buffer and kept at room temperature for 5 minutes before being neutralized by the addition of 5 ml of PBS and spun down. If pellets were still found to contain RBCs this step was repeated. Once all RBCs were removed cells were suspended in FACs buffer to a concentration of 10^7 cells/mL. A total volume of 200 ul of cells from each tumour were added to a 96 well plate (Falcon) and incubated with Fc Blocker (Biolegend, 1:400) for twenty minutes at 4° C. The 96 well plate was spun down at 1,200 rmp for three minutes and supernatant was removed. The cells were then suspended in 150 ul of FACs buffer containing anti-CD8a (PE-Cy7, 1:200, eBioscience) and CD4 (APC, 1:200, Biolegend) antibodies and incubated at 4° Celsius for 20 minutes. The cells were washed twice and spun down using FACs buffer before being to flow cytometry tubes in a final volume of 200 ul of FACs buffer containing 7AAD (Biolegend 1:200). Flow cytometry was performed on LSRII (BDBiosciences) and analysis was done using FlowJo (Flow cytometry Analysis Software).
Treatment of tumour-bearing mice with identified compounds. 5×10^4 A9 cells suspended in HBSS were subcutaneously (s.c.) transplanted into the right flank of 32 eight-week-old female C57BI/6 mice, as previously described 75. […] Body weight and tumours (once established) were measured every 2-4 days (more often as tumour size increased). Tumours were measured using calipers and volume was calculated as following: tumour volume=length×width^2. The tumour growth rate was assessed using methods previously described^28.

CC(C)=CCC[C@H](C)c1ccc(C)cc1O [Curcuphenol, curcuphenol]
mRNA expression of HDAC 8 [1]: increased mRNA expression | mRNA expression of HDAC 10 [1]: increased mRNA expression | mRNA expression of MHC class I [1]: increased mRNA expression | mRNA expression of TAP [1]: increased mRNA expression | Adiponectin/Acrp30 production [2]: Decrease | Amphiregulin production [2]: Decrease | Angiopoietin-1 production [2]: Decrease | Angiopoietin-2 production [2]: Increase | Angiopoietin-like 3 production [2]: Increase | CCL2/JE/MCP-1 production [2]: Decrease | CCL5/RANTES production [2]: Decrease | CCL6/C10 production [2]: Decrease | CCL11/Eotaxin production [2]: Decrease | CCL12/MCP-5 production [2]: Increase | CCL17/TARC production [2]: Decrease | CCL19/MIP-3beta production [2]: Increase | CCL22/MDC production [2]: Decrease | CD40/TNFRSF5 production [2]: Increase | CD160 production [2]: Decrease | CX3CL1/Fractalkine production [2]: Increase | CXCL9/MIG production [2]: Decrease | CXCL10/IP-10 production [2]: Decrease | CXCL11/I-TAC production [2]: Decrease | CXCL13/BLC/BCA-1 production [2]: Increase | CXCL16 production [2]: Increase | Chemerin production [2]: Decrease | Coagulation Factor III/Tissue Factor production [2]: Increase | Cystatin C production [2]: Increase | DGF-BB production [2]: Increase | E-Selectin/CD62-E production [2]: Decrease | Endostatin production [2]: Decrease | FGF-21 production [2]: Increase | Flt-3 Ligand production [2]: Decrease | G-CSF production [2]: Increase | GDF-15 production [2]: Increase | Gas 6 production [2]: Increase | IFN-gamma production [2]: Increase | IGFBP-2 production [2]: Decrease | IGFBP-3 production [2]: Decrease | IGFBP-6 production [2]: Decrease | IL-1alpha/IL-1F1 production [2]: Increase | IL-1beta/IL-1F2 production [2]: Increase | IL-1ra/IL-1F3 production [2]: Increase | IL-6 production [2]: Decrease | IL-7 production [2]: Decrease | IL-10 production [2]: Decrease | IL-11 production [2]: Decrease | IL-12 p40 production [2]: Decrease | IL-13 production [2]: Increase | IL-15 production [2]: Increase | IL-28A/B production [2]: Increase | IL-33 production [2]: Increase | LIX production [2]: Increase | Leptin production [2]: No change | M-CSF production [2]: Decrease | MMP-2 production [2]: Decrease | MMP-3 production [2]: Decrease | Myeloperoxidase production [2]: Increase | Osteopontin (OPN) production [2]: Increase | P-Selectin/CD62P production [2]: Decrease | Pentraxin 2/SAP production [2]: Decrease | Pentraxin 3/TSG-14 production [2]: Increase | Periostin/OSF-2 production [2]: No change | Pref-1/DLK-1/FA1 production [2]: Decrease | Proliferin production [2]: Increase | Proprotein Convertase 9/PCSK9 production [2]: No change | Serpin E1/PAI-1 production [2]: Increase | Serpin F1/PEDF production [2]: Increase | TIM-1/KIM-1/HAVCR production [2]: Increase | TNF-alpha production [2]: Decrease | VCAM-1/CD106 production [2]: No change | VEGF production [2]: Increase | WISP-1/CCN4 production [2]: Decrease

CC(C)=CCCCc1ccc(C)cc1O [P02-113]
anti-tumour effect compared among the treatments [3]: not found to be as significant as P03-97-1 or TSA; also recorded: slightly larger | tumour volume / tumour growth compared to vehicle control [3]: reduced; also recorded: statistically significant reduction of tumour volume | tumour volume / tumour growth compared to vehicle control ([3]; listed as PC-02-113): suppresses growth of tumors | body weight [3]: remained stable; also recorded: no significant changes

COc1ccc(C(C)CCC=C(C)C)c(O)c1 (centres unmarked) [P03-97-1]
anti-tumour effect compared among the treatments [3]: significant anti-tumour effect; also recorded: greater reduction in tumour burden | tumour volume / tumour growth compared to vehicle control [3]: reduced; also recorded: statistically significant reduction of tumour volume; also recorded: suppresses growth of tumors | body weight [3]: remained stable; also recorded: no significant changes
